Test system: IL-6 (THP-1 cells)
Assay: IL-6 inhibition in LPS-stimulated THP-1 monocytes (HTRF)
Assay type: cell-based
Details: Homo sapiens, IL-6 HTRF; for EC50: 500 ng/mL LPS, Table 6; for inhibition at 10 µM: LPS, Table 6, read-out: percent inhibition at 10 μM (given in parentheses for EC50 >10 μM)
Method in brief: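 THP-1 cells in 1% FBS pre-incubated 2 h with compound (10-point 1:3 series from 10 μM, 0.1% DMSO), then stimulated with 500 ng/mL LPS for 22 h at 37 °C. IL-6 measured by HTRF 665/620 ratio, normalized to DMSO; EC50 by four-parameter fit, or % inhibition at 10 μM when EC50 >10 μM.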

Work on `O=C(Nc1cncc(-c2ccc3[nH]nc(-c4nc5c(-c6cccc(F)c6)cccc5[nH]4)c3n2)c1)C1CC1` [Compound 20, N-(5-(3-(4-(3-Fluorophenyl)-1H-benzo[d]imidazol-2-yl)-1H-pyrazolo[4,3-b]pyridin-5-yl)pyridin-3-yl)cyclopropanecarboxamide] yielded an EC50 of over 10 µM and an inhibition at 10 µM of 0%.
With `O=C(Nc1cncc(-c2ccc3[nH]nc(-c4nc5c(N6CCCCC6)cccc5[nH]4)c3n2)c1)C1CC1` [Compound 188, N-(5-(3-(4-(Piperidin-1-yl)-1H-benzo[d]imidazol-2-yl)-1H-pyrazolo[4,3-b]pyridin-5-yl)pyridin-3-yl)cyclopropanecarboxamide] the EC50 was over 10 µM and the inhibition at 10 µM was 0%.
For `FC1(F)CCN(Cc2cncc(-c3ccc4[nH]nc(-c5nc6c(N7CCCCC7)cccc6[nH]5)c4n3)c2)C1` [Compound 194, 5-(5-((3,3-Difluoropyrrolidin-1-yl)methyl)pyridin-3-yl)-3-(4-(piperidin-1-yl)-1H-benzo[d]imidazol-2-yl)-1H-pyrazolo[4,3-b]pyridine], the EC50 was over 10 µM and the inhibition at 10 µM was 46.9%.
Molecule `CN1CCN(c2cccc3[nH]c(-c4n[nH]c5ccc(-c6cncc(NC(=O)C7CCCC7)c6)nc45)nc23)CC1` [Compound 246, N-(5-(3-(4-(4-Methylpiperazin-1-yl)-1H-benzo[d]imidazol-2-yl)-1H-pyrazolo [4,3-b]pyridin-5-yl)pyridin-3-yl)cyclopentanecarboxamide] has an EC50 of over 10 µM and an inhibition at 10 µM of 35.7%.
Molecule `CC(C)(C)CC(=O)Nc1cncc(-c2ccc3[nH]nc(-c4nc5ccccc5[nH]4)c3n2)c1` [Compound 268, N-(5-(3-(1H-Benzo[d]imidazol-2-yl)-1H-pyrazolo[4,3-b]pyridin-5-yl)pyridin-3-yl)-3,3-dimethylbutanamide] has an EC50 of 2.5 µM.
`O=C(Nc1cncc(-c2ccc3[nH]nc(-c4nc5ccccc5[nH]4)c3n2)c1)C1CCCCC1` [Compound 275, N-(5-(3-(1H-Benzo[d]imidazol-2-yl)-1H-pyrazolo[4,3-b]pyridin-5-yl)pyridin-3-yl) cyclohexanecarboxamide] was tested, and the EC50 was 1.84 µM.
In the case of `c1ccc(-c2ccc3[nH]nc(-c4nc5ccccc5[nH]4)c3n2)nc1` [Compound 280, 3-(1H-Benzo[d]imidazol-2-yl)-5-(pyridin-2-yl)-1H-pyrazolo[4,3-b]pyridine], the EC50 is reported as 0.0727 µM.
`CCCC(=O)Nc1cncc(-c2ccc3[nH]nc(-c4nc5c(-c6ccsc6)cccc5[nH]4)c3n2)c1` [Compound 297, N-(5-(3-(4-(Thiophen-3-yl)-1H-benzo[d]imidazol-2-yl)-1H-pyrazolo[4,3-b]pyridin-5-yl)pyridin-3-yl)butyramide] was tested, and the EC50 was over 10 µM and the inhibition at 10 µM was 0%.
Molecule `c1ccc(CNCc2cncc(-c3ccc4[nH]nc(-c5nc6c(-c7ccsc7)cccc6[nH]5)c4n3)c2)cc1` [Compound 304, N-Benzyl-1-(5-(3-(4-(thiophen-3-yl)-1H-benzo[d]imidazol-2-yl)-1H-pyrazolo[4,3-b]pyridin-5-yl)pyridin-3-yl)methanamine] has an EC50 of 5.33 µM.
`c1csc(-c2cccc3[nH]c(-c4n[nH]c5ccc(-c6ccncc6)nc45)nc23)c1` [Compound 354, 5-(Pyridin-4-yl)-3-(4-(thiophen-2-yl)-1H-benzo[d]imidazol-2-yl)-1H-pyrazolo[4,3-b]pyridine] showed an EC50 of over 10 µM and an inhibition at 10 µM of 20.4%.
Work on `O=C(Nc1cncc(-c2ccc3[nH]nc(-c4nc5c(-c6cccs6)cccc5[nH]4)c3n2)c1)C1CC1` [Compound 356, N-(5-(3-(4-(Thiophen-2-yl)-1H-benzo[d]imidazol-2-yl)-1H-pyrazolo[4,3-b]pyridin-5-yl)pyridin-3-yl)cyclopropanecarboxamide] yielded an EC50 of over 10 µM and an inhibition at 10 µM of 25.7%.
Work on `CN(C)CCNc1cc(F)cc(-c2cccc3[nH]c(-c4n[nH]c5ccc(-c6cncc(CNCC7CCCC7)c6)nc45)nc23)c1` [Compound 473, N^1-(3-(2-(5-(5-(((Cyclopentylmethyl)amino)methyl)pyridin-3-yl)-1H-pyrazolo[4,3-b]pyridin-3-yl)-1H-benzo[d]imidazol-4-yl)-5-fluorophenyl)-N^2,N^2-dimethylethane-1,2-diamine] yielded an EC50 of 4.26 µM.

From patent US10392383B2, “3-(1H-benzo[d]imidazol-2-yl)-1H-pyrazolo[4,3-b]pyridines and therapeutic uses thereof” (Samumed, LLC, priority 2015, dated 2019)
